From patent US20260297087A1, “Pyridoimidazolone Compounds, Preparation Thereof and Therapeutic Uses Thereof” (Sanofi, priority 2023, published 2026)

Assays:
[1] = biological target: T1, ERK5 (activated catalytic domain) (Homo sapiens, UniProt Q13164); experiment: Cell-Free Assay of ERK5 Inhibition (Time-Resolved FRET, 4EBP1 peptide phosphorylation); assay type: biochemical; details: ERK5 catalytic domain 4 nM, 1 mM ATP, 1 μM biotinylated 4EBP1 peptide, 30 min at 37° C.; mean where repeated; read-out: Cell-free assay (IC50 in nM)
T1 construct: purchased CarnaBiosciences 04-146
T1 sequence (Q13164 55-347 limits assumed): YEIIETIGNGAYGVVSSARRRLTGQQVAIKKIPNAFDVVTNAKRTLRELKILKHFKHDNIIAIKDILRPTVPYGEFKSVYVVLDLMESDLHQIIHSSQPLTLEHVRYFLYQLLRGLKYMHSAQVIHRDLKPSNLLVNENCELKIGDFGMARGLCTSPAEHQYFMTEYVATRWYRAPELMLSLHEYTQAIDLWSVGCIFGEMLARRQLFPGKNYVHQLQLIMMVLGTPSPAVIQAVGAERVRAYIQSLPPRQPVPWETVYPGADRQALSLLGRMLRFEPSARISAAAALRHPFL
In short: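 Activated ERK5 catalytic domain at 4 nM preincubated 30 min at room temperature with compound, then 1 mM ATP and 1 μM biotinylated 4EBP1 (aa 30-52) peptide added for 30 min at 37° C. Phosphorylation detected by TR-FRET; IC50 versus DMSO control, repeats averaged.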

ERK5 = biological target: T2, ERK5 (Homo sapiens, UniProt Q13164); experiment: Inhibition of Cellular ERK5 Activity (cell-based assay, MEF2 luciferase reporter in SN12C cells); details: renal cancer cell line SN12C, doxycycline-induced MEKSDD, mean where repeated
T2 construct: MEF2-luciferase reporter
T2 sequence (Q13164 whole entry): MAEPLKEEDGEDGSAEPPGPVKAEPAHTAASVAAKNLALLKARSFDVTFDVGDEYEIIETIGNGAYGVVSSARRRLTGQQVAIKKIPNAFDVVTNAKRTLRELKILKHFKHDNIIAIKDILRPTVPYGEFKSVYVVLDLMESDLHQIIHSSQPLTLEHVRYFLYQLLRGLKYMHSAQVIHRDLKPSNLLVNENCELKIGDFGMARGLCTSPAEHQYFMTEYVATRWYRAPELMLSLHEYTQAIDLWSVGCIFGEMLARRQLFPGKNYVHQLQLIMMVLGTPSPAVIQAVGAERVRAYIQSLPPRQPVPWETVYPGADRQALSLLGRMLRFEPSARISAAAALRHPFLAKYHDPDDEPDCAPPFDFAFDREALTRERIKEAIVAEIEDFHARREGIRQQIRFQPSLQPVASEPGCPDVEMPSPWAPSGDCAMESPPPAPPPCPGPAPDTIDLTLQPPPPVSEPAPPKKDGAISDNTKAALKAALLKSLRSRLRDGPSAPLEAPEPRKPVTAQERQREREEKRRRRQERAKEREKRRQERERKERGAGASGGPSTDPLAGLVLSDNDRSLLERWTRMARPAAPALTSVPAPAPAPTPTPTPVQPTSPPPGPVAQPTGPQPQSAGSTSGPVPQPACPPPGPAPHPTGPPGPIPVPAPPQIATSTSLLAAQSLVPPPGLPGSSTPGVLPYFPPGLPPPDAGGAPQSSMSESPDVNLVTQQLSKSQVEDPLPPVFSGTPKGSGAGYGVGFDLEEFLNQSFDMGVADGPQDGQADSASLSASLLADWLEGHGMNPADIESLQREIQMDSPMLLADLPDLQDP
In short: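 SN12C cells carrying a MEF2-luciferase reporter and doxycycline-inducible (1 μg/ml) constitutively active MEK5DD, seeded 24 h before compound addition at 0.3–1000 nM (0.1% DMSO final). Luminescence read; IC50 is the concentration giving 50% signal reduction versus DMSO-treated cells.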

Row | SMILES | IC50 [1] [nM] | IC50 (ERK5) [nM]
1 | Nc1cc(OC(F)(F)F)ccc1C(=O)N1CCC(n2c(=O)[nH]c3ncc(N4CCOCC4)cc32)CC1 [Example 3, 1-[1-[2-amino-4-(trifluoromethoxy)benzoyl]-4-piperidyl]-6-N-morpholino-3H-imidazo[4,5-b]pyridin-2-one] | 77 | 72
2 | CO[C@H]1CC[C@H](c2cnc3[nH]c(=O)n(C4CCN(C(=O)c5ccc(OC(F)(F)F)cc5N)CC4)c3c2)CC1 [Example 45, trans-1-[1-[2-amino-4-(trifluoromethoxy)benzoyl]-4-piperidyl]-6-(4-methoxycyclohexyl)-3H-imidazo[4,5-b]pyridin-2-one] | 107 | 29
3 | Nc1cc(OC(F)(F)F)ccc1C(=O)N1CCC(n2c(=O)[nH]c3ncc(OC4CCOC4)cc32)CC1 (racemic) [Example 55, (rac)-1-[1-[2-amino-4-(trifluoromethoxy)benzoyl]-4-piperidyl]-6-[tetrahydrofuran-3-yl]oxy-3H-imidazo[4,5-b]pyridin-2-one] | 87 | 83
4 | CN1CCC(Oc2cnc3[nH]c(=O)n(C4CCN(C(=O)c5ccc(OC(F)(F)F)cc5N)CC4)c3c2)C1 (single isomer, unassigned; isomer 1) [Example 47, 1-[1-[2-amino-4-(trifluoromethoxy)benzoyl]-4-piperidyl]-6-[1-methylpyrrolidin-3-yl]oxy-3H-imidazo[4,5-b]pyridin-2-one, Isomer 1] | 239 | 273
5 | Nc1cc(OC(F)(F)F)ccc1C(=O)N1CCC(n2c(=O)[nH]c3ncc(C4CCOCC4)cc32)CC1 [Example 2, 1-[1-[2-amino-4-(trifluoromethoxy)benzoyl]-4-piperidyl]-6-tetrahydropyran-4-yl-3H-imidazo[4,5-b]pyridin-2-one] | 48 | 68
6 | Nc1cc(OC(F)(F)F)ccc1C(=O)N1CCC(n2c(=O)[nH]c3ncc(C45CC(C(F)F)(C4)C5)cc32)CC1 [Example 33, 1-[1-[2-amino-4-(trifluoromethoxy)benzoyl]-4-piperidyl]-6-[3-(difluoromethyl)-1-bicyclo[1.1.1]pentanyl]-3H-imidazo[4,5-b]pyridin-2-one] | 376 | 124
7 | Nc1cc(OC(F)(F)F)ccc1C(=O)N1CCC(n2c(=O)[nH]c3ncc(C4CCCO4)cc32)CC1 (racemic) [Example 25, (rac)-1-[1-[2-amino-4-(trifluoromethoxy)benzoyl]-4-piperidyl]-6-tetrahydrofuran-2-yl-3H-imidazo[4,5-b]pyridin-2-one] | 377 | 57
8 | O=C(c1ccc(OC(F)(F)F)cc1)N1CCC(n2c(=O)[nH]c3ncc(OC4CCOCC4)cc32)CC1 [Example 4, 6-tetrahydropyran-4-yloxy-1-[1-[4-(trifluoromethoxy)benzoyl]-4-piperidyl]-3H-imidazo[4,5-b]pyridin-2-one] | 135 | 132

Second part, the compound after the results:

Row | IC50 [1] [nM] | IC50 (ERK5) [nM] | SMILES
9 | 974 | 217 | Nc1cc(OC(F)(F)F)ccc1C(=O)N1CCC(n2c(=O)[nH]c3ncc(C45CCCCC4C5)cc32)CC1 (racemic) [Example 34, (rac)-1-[1-[2-amino-4-(trifluoromethoxy)benzoyl]-4-piperidyl]-6-norcaran-1-yl-3H-imidazo[4,5-b]pyridin-2-one]
10 | 78 | 168 | CN1CCC(c2cnc3[nH]c(=O)n(C4CCN(C(=O)c5ccc(OC(F)(F)F)cc5N)CC4)c3c2)CC1 [Example 54, 1-[1-[2-amino-4-(trifluoromethoxy)benzoyl]-4-piperidyl]-6-(1-methyl-4-piperidyl)-3H-imidazo[4,5-b]pyridin-2-one]
11 | 77 | 150 | CN1CCC(Oc2cnc3[nH]c(=O)n(C4CCN(C(=O)c5ccc(OC(F)(F)F)cc5N)CC4)c3c2)C1 (racemic) [Example 6, (rac)-1-[1-[2-amino-4-(trifluoromethoxy)benzoyl]-4-piperidyl]-6-(1-methylpyrrolidin-3-yl)oxy-3H-imidazo[4,5-b]pyridin-2-one]
12 | 288 | 222 | O=C(c1ccc(OC(F)(F)F)cc1)N1CCC(n2c(=O)[nH]c3ncc([C@H]4CC[C@@H](O)CC4)cc32)CC1 [Example 58, cis-6-(4-hydroxycyclohexyl)-1-[1-[4-(trifluoromethoxy)benzoyl]-4-piperidyl]-3H-imidazo[4,5-b]pyridin-2-one]
13 | 1470 | 541 | Nc1cc(OC(F)(F)F)ccc1C(=O)N1CCC(n2c(=O)[nH]c3ncc(C4CCCCO4)cc32)CC1 (racemic) [Example 38, (rac)-1-[1-[2-amino-4-(trifluoromethoxy)benzoyl]-4-piperidyl]-6-tetrahydropyran-2-yl-3H-imidazo[4,5-b]pyridin-2-one]
14 | 502 | 67 | COCCc1cnc2[nH]c(=O)n(C3CCN(C(=O)c4ccc(OC(F)(F)F)cc4N)CC3)c2c1 [Example 24, 1-[1-[2-amino-4-(trifluoromethoxy)benzoyl]-4-piperidyl]-6-(2-methoxyethyl)-3H-imidazo[4,5-b]pyridin-2-one]
